# Assay results taken from patent US20050113450A1, “Antibacterial agents” (priority 2002, published 2005).
# Tested on: SA 9218
# Test: MIC by standard agar dilution method
# Format: cell-based
# Conditions: Mueller Hinton agar, 10^4 to 10^5 cells per spot, incubated overnight at 35° C., lowest concentration that inhibits visible growth
# From the text: The antibacterial agents of this invention have useful activity against a variety of organisms. The in vitro activity of compounds of this invention can be assessed by standard testing procedures such as the determination of minimum inhibitory concentration (MIC) by agar dilution as described in “Approved Standard. Methods for Dilution Antimicrobial Susceptibility Tests for Bacteria That Grow Aerobically”, 3rd. ed., published 1993 by the National Committee for Clinical Laboratory Standards, Villanova, Pa., USA. The in vitro MICs of test compounds were determined by a standard agar dilution method. A stock drug solution of each analog was prepared in the preferred solvent, usually DMSO:H2O (1:3). Serial 2-fold dilutions of each sample are made using 1.0 ml aliquots of sterile distilled water. To each 1.0 ml aliquot of drug was added 9 ml of molten Mueller Hinton agar medium. The drug-supplemented agar was mixed, poured into 15×100 mm petri dishes, and allowed to solidify and dry prior to inoculation. Vials of each of the test organisms are maintained frozen in the vapor phase of a liquid nitrogen freezer. Test cultures are grown overnight at 35° C. on the medium appropriate for the organism. Colonies are harvested with a sterile swab, and cell suspensions are prepared in Trypticase Soy broth (TSB) to equal the turbidity of a 0.5 McFarland standard. A 1:20 dilution of each suspension was made in TSB. The plates containing the drug supplemented agar are inoculated with a 0.001 ml drop of the cell suspension using a Steers replicator, yielding approximately 10^4 to 10^5 cells per spot. The plates are incubated overnight at 35° C. Following incubation the Minimum Inhibitory Concentration (MIC μg/ml), the lowest concentration of drug that inhibits visible growth of the organism, was read and recorded.
row,MIC,SMILES
1,64 µg/mL,CCOCC(=NO)c1ccc(C(=O)Nc2ccc(Cl)cc2C(=O)O)cc1
2,64 µg/mL,CC(=O)Oc1ccc(N2C(=O)c3ccc(C(=O)Nc4ccc(Br)cc4C(=O)O)cc3C2=O)cc1
3,32 µg/mL,O=C(Nc1ccc(Cl)cc1C(=O)O)c1ccc(C(=NO)C2CCCO2)cc1 (stereo not shown)
4,128 µg/mL,COc1ccc(C(=O)Nc2ccc(Br)cc2C(=O)O)cc1S(=O)(=O)NCCc1ccc(N)cc1
5,32 µg/mL,O=C(Nc1ccc(Br)cc1C(=O)O)c1ccc(S(=O)(=O)NC2Cc3ccccc3C2)cc1
6,64 µg/mL,CN(C)c1ccc(CNS(=O)(=O)c2cc(C(=O)Nc3ccc(Br)cc3C(=O)O)ccc2Br)cc1
7,32 µg/mL,CCN(Cc1ccncc1)S(=O)(=O)c1ccc(C(=O)Nc2ccc(Br)cc2C(=O)O)cc1
8,64 µg/mL,CN(C)c1ccc(CNS(=O)(=O)c2cccc(C(=O)Nc3ccc(Br)cc3C(=O)O)c2)cc1
9,128 µg/mL,Cc1ccc(C(=O)Nc2ccc(Br)cc2C(=O)O)cc1S(=O)(=O)NCc1ccc(N(C)C)cc1
10,16 µg/mL,CN(C)c1ccc(CNS(=O)(=O)c2ccc(Br)c(C(=O)Nc3ccc(Br)cc3C(=O)O)c2)cc1
11,1 µg/mL,Cc1ccc(C(=O)Nc2ccc(Br)cc2C(=O)O)cc1S(=O)(=O)N1CCc2ccccc21
12,128 µg/mL,CN(C)c1ccc(CNS(=O)(=O)c2ccc(C(=O)Nc3ccc(Br)cc3C(=O)O)cc2)cc1
13,8 µg/mL,O=C(Nc1ccc(Br)cc1C(=O)O)c1cc(S(=O)(=O)N2CCc3ccccc32)c(F)cc1Cl
14,8 µg/mL,Cc1ccc(C(=O)Nc2ccc(Br)cc2C(=O)O)cc1S(=O)(=O)Nc1ccc(Cl)c2ccccc12
15,64 µg/mL,Cc1ccc(S(=O)(=O)Nc2ccc3c(c2)OCCO3)cc1C(=O)Nc1ccc(Br)cc1C(=O)O
16,4 µg/mL,COc1ccc(C(=O)Nc2ccc(Br)cc2C(=O)O)cc1S(=O)(=O)N1CCc2ccccc21
17,0.5 µg/mL,O=C(Nc1ccc(Br)cc1C(=O)O)c1cc(S(=O)(=O)Nc2ccc3c(c2)OCCO3)ccc1Br
18,1 µg/mL,Cc1ccc(C(=O)Nc2ccc(Br)cc2C(=O)O)cc1S(=O)(=O)Nc1ccc2c(c1)OCCO2
19,16 µg/mL,O=C(Nc1ccc(Br)cc1C(=O)O)c1ccc(S(=O)(=O)Nc2ccc3c(c2)OCCO3)cc1
20,8 µg/mL,COc1ccc(C(=O)Nc2ccc(Br)cc2C(=O)O)cc1S(=O)(=O)Nc1ccc2c(c1)OCCO2
21,32 µg/mL,O=C(Nc1ccc(Br)cc1C(=O)O)c1cccc(S(=O)(=O)Nc2ccc(N3CCOCC3)cc2)c1
22,4 µg/mL,O=C(Nc1ccc(Br)cc1C(=O)O)c1cccc(S(=O)(=O)Nc2ccc3c(c2)OCCO3)c1
23,64 µg/mL,CCN(CC)c1ccc(NS(=O)(=O)c2cc(C(=O)Nc3ccc(Br)cc3C(=O)O)ccc2C)cc1

row,MIC,SMILES
1,16 µg/mL,COc1ccc(C(=O)Nc2ccc(Br)cc2C(=O)O)cc1S(=O)(=O)Nc1ccc(Cl)cc1
2,128 µg/mL,CCN(CC)c1ccc(NS(=O)(=O)c2cccc(C(=O)Nc3ccc(Br)cc3C(=O)O)c2)cc1
3,64 µg/mL,O=C(Nc1ccc(Br)cc1C(=O)O)c1ccc(S(=O)(=O)Nc2ccc(N3CCOCC3)cc2)cc1
4,1 µg/mL,Cc1ccc(C(=O)Nc2ccc(Br)cc2C(=O)O)cc1S(=O)(=O)N1CCc2ccc(Cl)cc21
5,64 µg/mL,CCN(CC)c1ccc(NS(=O)(=O)c2cc(C(=O)Nc3ccc(Br)cc3C(=O)O)ccc2Br)cc1
6,2 µg/mL,O=C(Nc1ccc(Br)cc1C(=O)O)c1cccc(S(=O)(=O)N2CCc3ccc(Cl)cc32)c1
7,32 µg/mL,CCN(CC)c1ccc(NS(=O)(=O)c2ccc(C(=O)Nc3ccc(Br)cc3C(=O)O)cc2)cc1
8,0.5 µg/mL,O=C(Nc1ccc(Br)cc1C(=O)O)c1ccc(S(=O)(=O)C2CCc3ccc(Cl)cc32)cc1 (stereo not shown)
9,2 µg/mL,O=C(Nc1ccc(Br)cc1C(=O)O)c1cc(S(=O)(=O)N2CCc3ccc(Cl)cc32)ccc1Br
10,128 µg/mL,O=C(Nc1ccc(Br)cc1C(=O)O)c1cc(F)ccc1F
11,16 µg/mL,O=C(Nc1ccc(Br)cc1C(=O)O)c1cc(S(=O)(=O)N2CCc3ccc(Cl)cc32)c(F)cc1Cl
12,8 µg/mL,O=C(Nc1ccc(Br)cc1C(=O)O)c1cccc(Br)c1
13,128 µg/mL,O=C(O)c1cc(Br)ccc1NC(=O)c1cccc2c1-c1ccccc1C2=O
14,8 µg/mL,O=C(Nc1ccc(Br)cc1C(=O)O)c1cccc(Cl)c1
15,> 128 µg/mL,N#Cc1cccc(C(=O)Nc2ccc(Br)cc2C(=O)O)c1
16,32 µg/mL,CN(C)c1cccc(C(=O)Nc2ccc(Br)cc2C(=O)O)c1
17,64 µg/mL,O=C(Nc1ccc(Br)cc1C(=O)O)c1cccc(F)c1
18,32 µg/mL,COc1cc(C(=O)Nc2ccc(Br)cc2C(=O)O)cc(OC)c1OC
19,8 µg/mL,O=C(Nc1ccc(Br)cc1C(=O)O)c1cc(Cl)cc(Cl)c1
20,128 µg/mL,CCOC(=O)Oc1c(OC)cc(C(=O)Nc2ccc(Br)cc2C(=O)O)cc1OC
21,128 µg/mL,COc1ccc(C(=O)Nc2ccc(Br)cc2C(=O)O)cc1OC
22,32 µg/mL,CCOc1cc(C(=O)Nc2ccc(Br)cc2C(=O)O)cc(OCC)c1OCC
23,16 µg/mL,COc1cc(OC)cc(C(=O)Nc2ccc(Br)cc2C(=O)O)c1

row,MIC,SMILES
1,64 µg/mL,Cc1cccc(C(=O)Nc2ccc(Br)cc2C(=O)O)c1
2,> 128 µg/mL,CCOc1ccc(C(=O)Nc2ccc(Br)cc2C(=O)O)cc1OCC
3,64 µg/mL,O=C(Nc1ccc(Br)cc1C(=O)O)c1ccc(F)cc1
4,8 µg/mL,O=C(Nc1ccc(Br)cc1C(=O)O)c1cccc(C(F)(F)F)c1
5,32 µg/mL,CCN(CC)c1ccc(C(=O)Nc2ccc(Br)cc2C(=O)O)cc1
6,128 µg/mL,N#Cc1ccc(C(=O)Nc2ccc(Br)cc2C(=O)O)cc1
7,32 µg/mL,O=C(Nc1ccc(Br)cc1C(=O)O)c1ccc(-c2ccccc2)cc1
8,32 µg/mL,CN(C)c1ccc(C(=O)Nc2ccc(Br)cc2C(=O)O)cc1
9,16 µg/mL,O=C(Nc1ccc(Br)cc1C(=O)O)c1cccc(OCc2cccc([N+](=O)[O-])c2)c1
10,32 µg/mL,Cc1cccc(C(=O)Nc2ccc(C#N)cc2C(=O)O)c1
11,16 µg/mL,O=C(Nc1ccc(Br)cc1C(=O)O)c1cccc(OCc2cccc(F)c2)c1
12,8 µg/mL,COc1ccc(C(=O)Nc2ccc(C#N)cc2C(=O)O)cc1F
13,> 128 µg/mL,O=C(Nc1ccc(Br)cc1C(=O)O)c1cccc(OCc2ccncc2)c1
14,32 µg/mL,O=C(Nc1ccc(Br)cc1C(=O)O)c1ccc(OCc2cccc(C(F)(F)F)c2)cc1
15,16 µg/mL,O=C(Nc1ccc(Br)cc1C(=O)O)c1ccc(OCc2cccc([N+](=O)[O-])c2)cc1
16,64 µg/mL,O=C(Nc1ccc(Br)cc1C(=O)O)c1cccc(OCc2cccc(C(F)(F)F)c2)c1
17,8 µg/mL,COc1cc(COc2ccc(C(=O)Nc3ccc(Br)cc3C(=O)O)cc2)ccc1[N+](=O)[O-]
18,> 128 µg/mL,O=C(Nc1ccc(Br)cc1C(=O)O)c1ccc(OCC2CCCC2)cc1
19,> 128 µg/mL,C#CC(CC)Oc1ccc(C(=O)Nc2ccc(Br)cc2C(=O)O)cc1 (stereo not shown)
20,128 µg/mL,O=C(Nc1ccc(Br)cc1C(=O)O)c1cccc(OCC2CCCC2)c1
21,64 µg/mL,CCN(CCOc1ccc(C(=O)Nc2ccc(Br)cc2C(=O)O)cc1)c1ccccc1
22,> 128 µg/mL,O=C(Nc1ccc(Br)cc1C(=O)O)c1ccc(OCCN2C(=O)CCC2=O)cc1
23,128 µg/mL,Cc1ncc([N+](=O)[O-])n1CCOc1ccc(C(=O)Nc2ccc(Br)cc2C(=O)O)cc1

row,MIC,SMILES
1,32 µg/mL,O=C(Nc1ccc(Br)cc1C(=O)O)c1ccc(OCc2cccc(F)c2)cc1
2,> 128 µg/mL,CN1CCCC1COc1ccc(C(=O)Nc2ccc(Br)cc2C(=O)O)cc1 (stereo not shown)
3,> 128 µg/mL,O=C(Nc1ccc(Br)cc1C(=O)O)c1ccc(OCc2ccncc2)cc1
4,16 µg/mL,CC#CCOc1ccc(C(=O)Nc2ccc(Br)cc2C(=O)O)cc1
5,64 µg/mL,Cc1cc(C)n(COc2ccc(C(=O)Nc3ccc(Br)cc3C(=O)O)cc2)n1
6,> 128 µg/mL,CC(C)OCCOc1ccc(C(=O)Nc2ccc(Br)cc2C(=O)O)cc1
7,> 128 µg/mL,COC(=O)c1ccc(COc2ccc(C(=O)Nc3ccc(Br)cc3C(=O)O)cc2)cc1
8,64 µg/mL,O=C(Nc1ccc(Br)cc1C(=O)O)c1ccc(OCCSc2nc3ccccc3s2)cc1
9,128 µg/mL,O=C(Nc1ccc(Br)cc1C(=O)O)c1ccc(OCCc2ccccn2)cc1
10,64 µg/mL,O=C(Nc1ccc(Br)cc1C(=O)O)c1ccc(OCCc2cccc([N+](=O)[O-])c2)cc1
11,128 µg/mL,O=C(Nc1ccc(Br)cc1C(=O)O)c1ccc(OC2CCOCC2)cc1
12,0.5 µg/mL,CSc1ccc(C(=O)Nc2ccc(C#N)cc2C(=O)O)cc1
13,64 µg/mL,O=C(Nc1ccc(Br)cc1C(=O)O)c1ccc(OCCN2C(=O)c3ccccc3C2=O)cc1
14,8 µg/mL,COc1cc(OC)cc(C(=O)Nc2ccc(C#N)cc2C(=O)O)c1
15,64 µg/mL,CC(C)(C)CCOc1ccc(C(=O)Nc2ccc(Br)cc2C(=O)O)cc1
16,128 µg/mL,N#Cc1ccc(NC(=O)c2ccc(F)cc2)c(C(=O)O)c1
17,64 µg/mL,O=C(Nc1ccc(Br)cc1C(=O)O)c1ccc(OCCNc2ccccc2)cc1
18,16 µg/mL,N#Cc1ccc(NC(=O)c2cccc3ccccc23)c(C(=O)O)c1
19,> 128 µg/mL,CCOC(=O)C1CCC(Oc2ccc(C(=O)Nc3ccc(Br)cc3C(=O)O)cc2)CC1 (stereo not shown)
20,64 µg/mL,COCC1CCCN1S(=O)(=O)c1cccc(C(=O)Nc2ccc(C#N)cc2C(=O)O)c1 (stereo not shown)
21,32 µg/mL,CC(C)(C)c1ccc(-c2ccc(C(=O)Nc3ccc(C#N)cc3C(=O)O)cc2)cc1
22,16 µg/mL,CC1CC(S(=O)(=O)c2cccc(C(=O)Nc3ccc(C#N)cc3C(=O)O)c2)CC(C)O1 (stereo not shown)
